pKd: −log10 of the molar value.

T1 sequence (Q9Y4B6 1077-1390): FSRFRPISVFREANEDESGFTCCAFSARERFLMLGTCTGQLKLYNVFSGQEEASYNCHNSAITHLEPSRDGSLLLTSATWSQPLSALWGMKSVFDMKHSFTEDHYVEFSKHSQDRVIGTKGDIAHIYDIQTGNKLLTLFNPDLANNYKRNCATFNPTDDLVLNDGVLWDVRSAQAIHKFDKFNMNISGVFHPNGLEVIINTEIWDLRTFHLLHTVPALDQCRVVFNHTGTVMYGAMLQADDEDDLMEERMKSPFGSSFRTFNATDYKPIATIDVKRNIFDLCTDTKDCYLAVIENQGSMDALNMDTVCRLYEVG

This experiment has as its target T1, DCAF1 WD40 domain (residues 1077-1390) (Homo sapiens, UniProt Q9Y4B6).
T1 construct: DCAF1 WD40 domain (residues 1077-1390)
The experiment can be described thus: DCAF1 binding assay by SPR (Biacore 8K+), DCAF1-3 KD. The settings on record: 25 °C, read-out: DCAF1-3 SPR (KD).
`O=C(N[C@@H](CC(=O)N1CCNCC1)c1cccc(Cl)c1)c1cn[nH]c1-c1ccccc1F` [I-787]: the pKd is over 5.00. In the case of `C=CC(=O)NC1CCN(c2ccnc(N[C@@H]3CCCN(c4cccc(F)c4)C3)c2)CC1` [I-451] it was under 3.70; in that of `Fc1cccc(N2CCC[C@@H](N(CCc3ccccc3)c3nccc(N4CCOCC4)n3)C2)c1` [I-323], under 3.70.

Regarding `c1ccc2c(N3CCC[C@@H](Nc4cncc(N5CCOCC5)c4)C3)cncc2c1` [I-365], the negative logarithm of the Kd (pKd) was over 5.00. In the case of `C=CC(=O)N1C[C@H](c2ccc(Br)cc2)[C@@H]1C(=O)N1CCN(c2ccnc(N[C@@H]3CCCN(c4cccc(F)c4)C3)c2)CC1` [I-641] it was 4.00 to 5.00. In the case of `OC[C@@]1(Nc2cc(N3CCOCC3)ccn2)CCCN(c2cccc(F)c2)C1` [I-276], the negative-log Kd (pKd) was under 3.70. Turning to `Cc1c(F)ccc(F)c1-c1c(C(=O)N[C@@H](CC(N)=O)c2cccc(Cl)c2)cn(C)c1C(=O)c1ccc(OCCOCCOCCOCCOCCOCCN)cc1` [I-1018], the pKd is over 5.00. Then `c1ccc2ncc(N3CCC[C@@H](Nc4nccc(N5CCOCC5)n4)C3)cc2c1` [I-46], with under 3.70; and `NCCCc1cccc(N2CCC[C@@H](Nc3cc(N4CCOCC4)ccn3)C2)c1` [I-867], with 4.00 to 5.00; and `Fc1cccc([C@H]2CCC[C@@H](Nc3nccc(N4CCOCC4)n3)C2)c1` [I-181], with under 3.70.

`C[C@H](NC(=O)c1c[nH]nc1-c1ccccc1F)c1cccc(Cl)c1` [I-106]: the negative logarithm of the Kd (pKd) was 4.00 to 5.00. Regarding `NS(=O)(=O)CCc1cccc(N2CCC[C@H]3[C@@H]2CCN3c2cc(N3CCCCC3)ccn2)c1` [I-964], the negative-log Kd (pKd) was over 5.00.

For `NC(=O)C[C@H](NC(=O)CNC1=Nc2ccccc2CC1)c1cccc(Cl)c1` [I-440], the pKd was under 3.70. In the case of `FC(F)(F)Oc1ccc(N2CCC[C@@H](Nc3cc(N4CCOCC4)ccn3)C2)nc1` [I-426] it was 4.00 to 5.00; in that of `NC(=O)C[C@@]1(NC(=O)c2cn[nH]c2-c2ccccc2F)CCc2ccc(Cl)cc21` [I-361], under 3.70. In the case of `Fc1cccc(N2CCC[C@@H]3[C@H]2CCCN3c2cc(N3CCOCC3)ccn2)c1` [I-190] it was under 3.70; in that of `NC(=O)CCc1ccc(N2CCC[C@@H](Nc3cc(N4CCOCC4)ccn3)C2)cc1` [I-869], 4.00 to 5.00; in that of `NC(=O)C[C@H](NC(=O)c1cn[nH]c1-c1ccccc1F)c1ccc(Cl)cc1` [I-97], over 5.00. Then `COc1c(N[C@@H]2CCCN(c3cccc(F)c3)C2)cncc1N1CCOCC1` [I-544], with 3.70 to 4.00; and `Fc1cccc(N2CCC[C@@H](Nc3cc(N4CCCCCC4)ccn3)C2)c1` [I-597], with over 5.00; and `NC(=O)C[C@H](NC(=O)c1cnn(CC2CCCC2)c1-c1ccccc1F)c1cccc(Cl)c1` [I-166], with under 3.70. In the case of `NCc1ccc(N2CCC[C@@H](Nc3cc(N4CCOCC4)ccn3)C2)cc1` [I-868], the pKd is over 5.00. As to `CCCCCCC[C@H]1CCCN(c2ccnc(N3CC[C@H]4[C@@H]3CCCN4c3cccc(F)c3)c2)C1` [I-729], the pKd is 4.00 to 5.00. In the case of `C=CC(=O)N1CC(N(C)c2ccnc(N[C@@H]3CCCN(c4cccc(F)c4)C3)c2)C1` [I-457], the pKd is 4.00 to 5.00. Then `Fc1cccc(N2CCC[C@@H](Nc3cc([C@H]4CCCCN4)ccn3)C2)c1` [I-126], with under 3.70; and `c1ccc(-c2nc3cccc(N4CCC[C@@H](Nc5cc(N6CCOCC6)ccn5)C4)c3o2)cc1` [I-685], with under 3.70; and `Cn1nnnc1-c1ccc(F)c(-c2n[nH]cc2C(=O)N[C@@H](CC(N)=O)c2cccc(Cl)c2)c1` [I-268], with under 3.70. Then `NCCCCCCCCCCCCCCCCCC1CCN(c2ccnc(N3CC[C@@H]4[C@H]3CCCN4c3cccc(F)c3)c2)CC1` [I-719], with under 3.70; and `Clc1nc2c(c(N3CCC[C@@H](Nc4cc(N5CCOCC5)ccn4)C3)n1)CCNC2` [I-681], with 4.00 to 5.00; and `NC(=O)C[C@H](NC(=O)c1c(-c2ccccc2F)cc[nH]c1=O)c1cccc(Cl)c1` [I-216], with under 3.70. Consider `CN(C)c1ccnc(N[C@@H]2CCCN(c3cccc(F)c3)C2)c1` [I-498], for which the negative logarithm of the Kd (pKd) was 4.00 to 5.00. In the case of `C[C@@H](C(N)=O)[C@H](NC(=O)c1c[nH]nc1-c1ccccc1F)c1cccc(Cl)c1` [I-211] it was under 3.70; in that of `NCc1cnc(N2CCCCC2)nc1N[C@@H]1CCCN(c2cccc(F)c2)C1` [I-1010], 4.00 to 5.00. As for `Oc1cccc(N2CCC[C@@H](Nc3cc(N4CCOCC4)ncn3)C2)c1` [I-13], the pKd was under 3.70. As to `Fc1cccc(N2CCC3CCCc4ncc(N5CCOCC5)cc4NC3C2)c1` (stereo not shown) [I-228], the negative-log Kd (pKd) is under 3.70. Then `NC(=O)C[C@H](NC(=O)c1cn[nH]c1-c1cccc(F)c1)c1cccc(Cl)c1` [I-115], with over 5.00; and `Cc1ccccc1[C@H](CC(N)=O)NC(=O)c1cn[nH]c1-c1ccccc1F` [I-105], with over 5.00; and `Cc1sc2c(c1C)C(c1ccc(Cl)cc1)=N[C@@H](CC(=O)NCCOCCOCCOCCOCCOCCn1ncc(C(=O)N[C@@H](CC(N)=O)c3cccc(Cl)c3)c1-c1ccccc1F)c1nnc(C)n1-2` [I-487], with under 3.70. For `COCCn1cc(C(=O)N[C@@H](CC(N)=O)c2cccc(Cl)c2)c(-c2ccccc2F)n1` [I-120], the pKd was 4.00 to 5.00. Then `COCCOCC[C@@H]1CCCN(c2ccnc(N3CC[C@@H]4[C@H]3CCCN4c3cccc(F)c3)c2)C1` [I-704], with under 3.70; and `C[C@@]1(Nc2cc(N3CCOCC3)ncn2)CCCN(c2cccc(F)c2)C1` [I-176], with under 3.70. Consider `COC(=O)c1ccc(F)c(-c2n[nH]cc2C(=O)N[C@@H](CC(N)=O)c2cccc(Cl)c2)c1` [I-270], for which the pKd is under 3.70. Then `OCCc1ccc(N2CCC[C@@H](Nc3cc(N4CCOCC4)ccn3)C2)cc1` [I-860], with under 3.70. In the case of `Cc1cc(CCCOCCOCCOCCOCCOCCN)cc(F)c1-c1c(C(=O)N[C@@H](CC(N)=O)c2cccc(Cl)c2)c[nH]c1C#N` [I-918], the pKd is over 5.00.

For `Cc1sc2c(c1C)C(c1ccc(Cl)cc1)=N[C@@H](CC(=O)NCCOCCOCCOCCOCCCc1ccc(C(=O)c3[nH]cc(C(=O)N[C@@H](CC(=O)N4CCNCC4)c4cccc(Cl)c4)c3-c3c(F)ccc(F)c3C)cc1)c1nnc(C)n1-2` [I-913], the pKd is over 5.00.

For the compound `NC(=O)OCc1cccc(N2CCC[C@@H]3[C@H]2CCN3c2cc(N3CCCCC3)ccn2)c1` [I-955], the pKd is 4.00 to 5.00. In the case of `COCCOCC[C@H]1CCCN(c2ccnc(N3CC[C@H]4[C@@H]3CCCN4c3cccc(F)c3)c2)C1` [I-715] it was over 5.00; in that of `Cc1sc2c(c1C)C(c1ccc(Cl)cc1)=N[C@@H](CC(=O)NCCCCCCCCCCCCCCCCCCCCC1CCN(c3ccnc(N4CC[C@@H]5[C@H]4CCCN5c4cccc(F)c4)c3)CC1)c1nnc(C)n1-2` [I-903], under 3.70; in that of `C=CC(=O)n1ccc(-c2n[nH]cc2C(=O)N[C@@H](CC(N)=O)c2cccc(Cl)c2)n1` [I-468], under 3.70. In the case of `Nc1ccc(N2CCC[C@H]3[C@@H]2CCN3c2cc(N3CC4CC(C4)C3)ccn2)cc1F` [I-734] it was 4.00 to 5.00; in that of `Cc1sc2c(c1C)C(c1ccc(Cl)cc1)=N[C@@H](CC(=O)NCCOCCOCCOCCOCCOCCOCCn1ncc(C(=O)N[C@@H](CC(N)=O)c3cccc(Cl)c3)c1-c1ccccc1F)c1nnc(C)n1-2` [I-492], under 3.70. `Cc1cccc(F)c1-c1c(C(=O)N[C@@H](CC(N)=O)c2cccc(Cl)c2)c[nH]c1C#N` [I-637]: the pKd is over 5.00. Then `OCc1cnc2ccc(N3CCC[C@@H](Nc4cc(N5CCCCC5)ccn4)C3)nn12` [I-760], with under 3.70; and `Nc1ccc(N2CCC[C@@H]3[C@H]2CCN3c2cc(N3CC4CC(C4)C3)ccn2)cc1F` [I-733], with over 5.00; and `OC[C@H]1CC[C@H](Nc2cc(N3CCCCC3)ccn2)CC1` [I-847], with under 3.70. Then `CN(c1cc(N2CCOCC2)ncn1)[C@@H]1CCCN(c2cccc(F)c2)C1` [I-385], with under 3.70; and `Fc1cccc(N2CCC[C@@H](Nc3cc(N4CC5CCCC5C4)ccn3)C2)c1` (stereo partly shown) [I-575], with over 5.00; and `O=S1(=O)[C@H](Nc2cc(N3CCOCC3)ccn2)CCCN1c1cccc(F)c1` [I-282], with under 3.70. For the compound `Fc1cccc(N2CCC[C@H]3[C@@H]2CCN3c2cc(N3CC4CC(C4)C3)ccn2)c1` [I-624], the negative-log Kd (pKd) was under 3.70. In the case of `Cc1sc2c(c1C)C(c1ccc(Cl)cc1)=N[C@@H](CC(=O)NCCCCCCCCCCCCCCCCCC(=O)c1[nH]cc(C(=O)N[C@@H](CC(N)=O)c3cccc(Cl)c3)c1-c1ccccc1F)c1nnc(C)n1-2` [I-893], the negative-log Kd (pKd) is under 3.70. In the case of `Cc1ncc(N[C@@H]2CCCN(c3cccc(F)c3)C2)cc1N1CCOCC1` [I-545] it was under 3.70; in that of `Fc1cccc(N2CCC[C@H](Nc3nccc(N4CCOCC4)n3)C2)c1` [I-119], 3.70 to 4.00. Turning to `NC(=O)C[C@@H](NC(=O)c1cn[nH]c1-c1ncccc1F)c1cccc(Cl)c1` [I-529], the pKd is 4.00 to 5.00. As to `OC[C@@H]1CCN(c2cccc(F)c2)C[C@H]1Nc1cc(N2CCCCC2)ccn1` [I-990], the pKd was 4.00 to 5.00. Then `Fc1cccc(N2CCC3CCCc4ncc(N5CCOCC5)cc4N[C@H]3C2)c1` (stereo partly shown) [I-227], with under 3.70; and `Oc1c(CN2CCCCC2)cccc1[C@H]1CCCN(c2cccc(F)c2)C1` [I-731], with under 3.70; and `Fc1cccc(N2CCC[C@@H](Nc3cc([C@H]4CCCOC4)ccn3)C2)c1` [I-125], with under 3.70. In the case of `Fc1cccc(N2CCC[C@@H](Oc3cc(N4CCOCC4)ccn3)C2)c1` [I-81] it was under 3.70. In the case of `NC(=O)C[C@H](NC(=O)c1c[nH]nc1-c1cccc2ncnn12)c1cccc(Cl)c1` [I-237] it was under 3.70; in that of `Fc1cccc(N2CC[C@@H]3CCCc4ncc(N5CCOCC5)cc4N[C@H]3C2)c1` [I-245], under 3.70; in that of `Fc1cccc(N2CCC[C@@H](N3CCCc4c(N5CCOCC5)ccnc43)C2)c1` [I-197], under 3.70. Regarding `c1ccc2c(N3CCC[C@@H](Nc4cc(N5CCOCC5)ncn4)C3)cncc2c1` [I-391], the negative logarithm of the Kd (pKd) is under 3.70. In the case of `NC(=O)C[C@H](NC(=O)c1c[nH]c(C(N)=O)c1-c1ccccc1F)c1cccc(Cl)c1` [I-599] it was over 5.00.

Values taken from US20260373266A1, “PROTEIN DEGRADERS AND USES THEREOF” (KYMERA THERAPEUTICS, INC., priority 2022, published 2026).
